Earlier results as cited in patent US20040142860A1, “Central nervous system-derived immune privilege factor and uses thereof” (Yeda Research and Development Co. Ltd., priority 1996, published 2004).

Tested on: ganglion cell degradation in the retina
Conditions: single or repeated injections into the vitreous body

## Threonine-Lysine-Proline [TKP]
  effect on axotomy-induced ganglion cell degradation in the retina: retardation of axotomy-induced ganglion cell degradation in the retina
